Results on 11 compounds are retold here after patent publication US12599672B2, “KRAS proteolysis targeting chimeras” (PAQ Therapeutics Inc., priority 2023, dated 2026).

Type in all cases: cell-based
One assay concerns the target T1, KRAS G12D (Homo sapiens, UniProt P01116, G12D).
T1 construct: AsPc-1-KRAS (G12D)-HiBit-KI cell (Pharmaron); host or cells: AsPc-1-KRAS (G12D)-HiBit-KI cells (HiBiT knock-in at the endogenous KRAS locus)
The assay is described as follows: KRAS G12D HiBit assay. To be noted: AsPc-1-KRAS (G12D)-HiBit-KI cell, compound treatment for 24 hours; for DC50: absolute DC50. In outline:
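HiBiT luminescence, detected by adding lytic buffer, substrate and LgBiT protein, served as the KRAS G12D read-out. Compounds, serially diluted 3-fold over 10 points from 0.3 mM DMSO stock, were on cells for 24 h; percent inhibition normalized to cells given 0.1% DMSO only.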

Another assay has as its target T2, KRAS G12V (Homo sapiens, UniProt P01116, G12V).
T2 construct: SW620-KRAS (G12V)-HiBit-KI cell (Pharmaron); host or cells: SW620-KRAS (G12V)-HiBit-KI cells (HiBiT knock-in at the endogenous KRAS locus)
Description: KRAS G12V HiBit assay. Conditions: SW620-KRAS (G12V)-HiBit-KI cells, compound treatment for 24 hours, class symbols. The procedure, abridged:
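Luminescence from lytic Nano-Glo HiBiT detection with LgBiT read KRAS G12V levels after 24 h compound exposure. Dilutions were 10-point, 3-fold, from a 0.3 mM DMSO stock. Degradation activity was normalised to cells given 0.1% DMSO alone.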

The target in a further assay is T3, KRAS (Homo sapiens, UniProt P01116).
T3 construct: endogenous in cells; host or cells: KE39 (KRAS amplified) cells
T3 sequence (P01116 1-188 isoform P01116-2): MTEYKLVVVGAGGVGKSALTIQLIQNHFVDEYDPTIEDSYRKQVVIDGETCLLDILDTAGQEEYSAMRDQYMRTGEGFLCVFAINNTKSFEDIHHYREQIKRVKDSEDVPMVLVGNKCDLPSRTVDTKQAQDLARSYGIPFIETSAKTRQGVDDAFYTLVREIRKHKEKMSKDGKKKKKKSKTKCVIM
The assay is described as follows: KRASamp MSD assay. Conditions: KE39 (KRAS amplified) cells, treated with test compounds for 24 hr, MSD readout of KRAS degradation. In outline:
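Degradation DC50 derived by curve fitting, with KRAS levels quantified by MSD electrochemiluminescence (capture/detection antibodies, recombinant WT KRAS standard). Lysates prepared from KE39 cells (KRAS amplified) exposed to test compounds for 24 hr.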

[1] abbreviates: numeric bounds given in place of class symbols.

T2 sequence (P01116 1-188 isoform P01116-2 G12V): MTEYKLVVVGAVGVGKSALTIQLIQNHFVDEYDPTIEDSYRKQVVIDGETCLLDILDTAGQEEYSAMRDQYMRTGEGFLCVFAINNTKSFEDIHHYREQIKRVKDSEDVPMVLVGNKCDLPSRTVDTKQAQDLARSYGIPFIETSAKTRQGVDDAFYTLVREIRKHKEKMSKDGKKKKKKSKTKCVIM
T1 sequence (P01116 1-188 isoform P01116-2 G12D): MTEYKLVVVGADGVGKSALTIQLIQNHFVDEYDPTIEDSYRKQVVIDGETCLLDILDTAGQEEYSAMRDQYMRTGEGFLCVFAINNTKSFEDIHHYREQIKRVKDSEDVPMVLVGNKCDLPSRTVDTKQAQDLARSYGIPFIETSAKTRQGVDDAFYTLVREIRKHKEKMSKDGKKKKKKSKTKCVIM

On to `C#Cc1c(F)ccc2cc(O)cc(-c3ncc4c(N5CCCC(C#N)CC5)nc(OC[C@@]56CCCN5[C@H](COC(=O)N5CCC(CN7CCC(c8ccc9c(c8)n(C)c(=O)n9C8CCC(=O)NC8=O)CC7)CC5)CC6)nc4c3F)c12` (stereo partly drawn) [Compound 110, ((3S,7aS)-7a-(((4-(4-Cyanoazepan-1-yl)-7-(8-ethynyl-7-fluoro-3-hydroxynaphthalen-1-yl)-8-fluoropyrido[4,3-d]pyrimidin-2-yl)oxy)methyl)hexahydro-1H-pyrrolizin-3-yl)methyl 4-((4-(1-(2,6-dioxopiperidin-3-yl)-3-methyl-2-oxo-2,3-dihydro-1H-benzo[d]imidazol-5-yl)piperidin-1-yl)methyl) piperidine-1-carboxylate], for which the figures for the DC50 at KRAS G12D (class symbols), on KRAS G12V and at KRAS were below 100 nM, below 10 nM and 1 to 10 nM, respectively. At KRAS G12D (class symbols), this compound displayed a Dmax above 50%.

As for `CCc1c(F)ccc2cc(O)cc(-c3ncc4c(N5CCC[C@@](C)(O)C5)nc(OC[C@]56CCCN5[C@H](COC(=O)NC5CCN(c7ccc8c(c7)n(C)c(=O)n8C7CCC(=O)NC7=O)CC5)CC6)nc4c3F)c12` (stereo partly drawn) [Compound 308, ((3S,7aR)-7a-(((7-(8-ethyl-7-fluoro-3-hydroxynaphthalen-1-yl)-8-fluoro-4-((R)-3-hydroxy-3-methylpiperidin-1-yl)pyrido[4,3-d]pyrimidin-2-yl)oxy)methyl)hexahydro-1H-pyrrolizin-3-yl)methyl (1-(1-(2,6-dioxopiperidin-3-yl)-3-methyl-2-oxo-2,3-dihydro-1H-benzo[d]imidazol-5-yl)piperidin-4-yl)carbamate], the values for the DC50 on KRAS G12D (setting [1]), at KRAS G12V and at KRAS were above 100 nM, 10 to 100 nM and below 1 nM, respectively.

Turning to `CCc1c(F)ccc2cc(O)cc(-c3ncc4c(N5CCC[C@@](C)(O)C5)nc(OC[C@]56CCCN5[C@H](COC(=O)N5CCC(c7ccc8c(c7)n(C)c(=O)n8C7CCC(=O)NC7=O)CC5)CC6)nc4c3F)c12` (stereo partly drawn) [Compound 307, ((3S,7aR)-7a-(((7-(8-ethyl-7-fluoro-3-hydroxynaphthalen-1-yl)-8-fluoro-4-((R)-3-hydroxy-3-methylpiperidin-1-yl)pyrido[4,3-d]pyrimidin-2-yl)oxy)methyl)hexahydro-1H-pyrrolizin-3-yl)methyl 4-(1-(2,6-dioxopiperidin-3-yl)-3-methyl-2-oxo-2,3-dihydro-1H-benzo[d]imidazol-5-yl)piperidine-1-carboxylate], the DC50 on KRAS G12D (class symbols) is below 100 nM; at KRAS G12V it was above 100 nM; at KRAS, 1 to 10 nM.

With `CCc1c(F)ccc2cc(O)cc(-c3ncc4c(N5CCC[C@@](C)(O)C5)nc(OC[C@@]56CCCN5[C@@H](COC(=O)N5CCC(CCCOc7ccc8c(c7)n(C)c(=O)n8C7CCC(=O)NC7=O)CC5)CC6)nc4c3F)c12` (stereo partly drawn) [Compound 316, ((3R,7aS)-7a-(((7-(8-ethyl-7-fluoro-3-hydroxynaphthalen-1-yl)-8-fluoro-4-((R)-3-hydroxy-3-methylpiperidin-1-yl)pyrido[4,3-d]pyrimidin-2-yl)oxy)methyl)hexahydro-1H-pyrrolizin-3-yl)methyl 4-(3-((1-(2,6-dioxopiperidin-3-yl)-3-methyl-2-oxo-2,3-dihydro-1H-benzo[d]imidazol-5-yl)oxy)propyl)piperidine-1-carboxylate], the DC50 is above 100 nM at KRAS G12D (setting [1]), above 100 nM on KRAS G12V and at least 10 nM at KRAS.

On to `CCc1c(F)ccc2cc(O)cc(-c3ncc4c(N5CCC[C@@](C)(O)C5)nc(OC[C@@]56CCCN5[C@H](COC(=O)N5CC7(CCN(CC8CCN(c9ccc%10c(c9)n(C)c(=O)n%10C9CCC(=O)NC9=O)CC8)CC7)C5)CC6)nc4c3F)c12` (stereo partly drawn) [Compound 452, ((3S,7aS)-7a-(((7-(8-ethyl-7-fluoro-3-hydroxynaphthalen-1-yl)-8-fluoro-4-((R)-3-hydroxy-3-methylpiperidin-1-yl)pyrido[4,3-d]pyrimidin-2-yl)oxy)methyl)hexahydro-1H-pyrrolizin-3-yl)methyl 7-((1-(1-(2,6-dioxopiperidin-3-yl)-3-methyl-2-oxo-2,3-dihydro-1H-benzo[d]imidazol-5-yl)piperidin-4-yl)methyl)-2,7-diazaspiro[3.5]nonane-2-carboxylate], for which the DC50 was below 100 nM at KRAS G12D (class symbols), below 10 nM on KRAS G12V and below 1 nM on KRAS.

For the compound `C#Cc1c(F)ccc2cc(O)cc(-c3ncc4c(N5CCC[C@@](C)(O)C5)nc(OC[C@@]56CCCN5[C@H](COC(=O)N5CC7(CCC(N8CCC(c9ccc%10c(c9)n(C)c(=O)n%10C9CCC(=O)NC9=O)CC8)CC7)C5)CC6)nc4c3F)c12` (stereo partly drawn) [Compound 420, ((3S,7aS)-7a-(((7-(8-ethynyl-7-fluoro-3-hydroxynaphthalen-1-yl)-8-fluoro-4-((R)-3-hydroxy-3-methylpiperidin-1-yl)pyrido[4,3-d]pyrimidin-2-yl)oxy)methyl)hexahydro-1H-pyrrolizin-3-yl)methyl 7-(4-(1-(2,6-dioxopiperidin-3-yl)-3-methyl-2-oxo-2,3-dihydro-1H-benzo[d]imidazol-5-yl)piperidin-1-yl)-2-azaspiro[3.5]nonane-2-carboxylate], the DC50 at KRAS G12D (class symbols) was below 100 nM; on KRAS G12V it was 10 to 100 nM; on KRAS, 1 to 10 nM.

Take `CCc1c(F)ccc2cc(O)cc(-c3ncc4c(N5CCC[C@@](C)(O)C5)nc(OC[C@@]56CCCN5[C@H](COC(=O)N5CCC7(CCC(N8CCC(c9ccc%10c(c9)n(C)c(=O)n%10C9CCC(=O)NC9=O)CC8)CC7)CC5)CC6)nc4c3F)c12` (stereo partly drawn) [Compound 465, ((3S,7aS)-7a-(((7-(8-ethyl-7-fluoro-3-hydroxynaphthalen-1-yl)-8-fluoro-4-((R)-3-hydroxy-3-methylpiperidin-1-yl)pyrido[4,3-d]pyrimidin-2-yl)oxy)methyl)hexahydro-1H-pyrrolizin-3-yl)methyl 9-(4-(1-(2,6-dioxopiperidin-3-yl)-3-methyl-2-oxo-2,3-dihydro-1H-benzo[d]imidazol-5-yl)piperidin-1-yl)-3-azaspiro[5.5]undecane-3-carboxylate]: the DC50 on KRAS G12D (class symbols) is below 100 nM; on KRAS G12V it was below 10 nM; on KRAS, below 1 nM.

For `CCc1c(F)ccc2cc(O)cc(-c3ncc4c(N5CCC[C@@](C)(O)C5)nc(OC[C@@]56CCCN5[C@H](COC(=O)N5CCC(CN7CCC(c8ccc9c(c8)n(C)c(=O)n9C8CCC(=O)NC8=O)CC7)CC5)CC6)nc4c3F)c12` (stereo partly drawn) [Compound 1, [(3S,8S)-8-[[7-(8-Ethyl-7-fluoro-3-hydroxy-1-naphthyl)-8-fluoro-4-[(3R)-3-hydroxy-3-methyl-1-piperidyl]pyrido[4,3-d]pyrimidin-2-yl]oxymethyl]-1,2,3,5,6,7-hexahydropyrrolizin-3-yl]methyl 4-[[4-[1-(2,6-dioxo-3-piperidyl)-3-methyl-2-oxo-benzimidazol-5-yl]-1-piperidyl]methyl]piperidine-1-carboxylate], the figures for the DC50 at KRAS G12D (class symbols), on KRAS G12V and on KRAS were below 100 nM, below 10 nM and below 1 nM, respectively. Further, the “Average Dmax” value on KRAS G12D (class symbols) is “A (Dmax greater than 50%)”.

As for `CCc1c(F)ccc2cc(O)cc(-c3ncc4c(N5CCC[C@@](C)(O)C5)nc(OC[C@]56CCCN5[C@H](COC(=O)N5CCC(CCCCOc7ccc8c(c7)n(C)c(=O)n8C7CCC(=O)NC7=O)CC5)CC6)nc4c3F)c12` (stereo partly drawn) [Compound 303, ((3S,7aR)-7a-(((7-(8-ethyl-7-fluoro-3-hydroxynaphthalen-1-yl)-8-fluoro-4-((R)-3-hydroxy-3-methylpiperidin-1-yl)pyrido[4,3-d]pyrimidin-2-yl)oxy)methyl)hexahydro-1H-pyrrolizin-3-yl)methyl 4-(4-((1-(2,6-dioxopiperidin-3-yl)-3-methyl-2-oxo-2,3-dihydro-1H-benzo[d]imidazol-5-yl)oxy)butyl)piperidine-1-carboxylate], the DC50 was below 100 nM at KRAS G12D (class symbols), below 10 nM on KRAS G12V and 1 to 10 nM at KRAS.

In the case of `CCc1c(F)ccc2cc(O)cc(-c3ncc4c(N5CCC[C@@](C)(O)C5)nc(OC[C@@]56CCCN5[C@H](COC(=O)c5ccc(CN7CCC(c8ccc9c(c8)n(C)c(=O)n9C8CCC(=O)NC8=O)CC7)cc5)CC6)nc4c3F)c12` (some centres unmarked) [Compound 154], the DC50 on KRAS G12D (class symbols) is below 100 nM; at KRAS G12V it was below 10 nM; at KRAS, below 1 nM.

As to `CCc1c(F)ccc2cc(O)cc(-c3ncc4c(N5CCC[C@@](C)(O)C5)nc(OC[C@@]56CCCN5[C@H](COC(=O)N5CC7(CCC(N8CCC(c9ccc%10c(c9)n(C)c(=O)n%10C9CCC(=O)NC9=O)CC8)CC7)C5)CC6)nc4c3F)c12` (stereo partly drawn) [Compound 467, ((3S,7aS)-7a-(((7-(8-ethyl-7-fluoro-3-hydroxynaphthalen-1-yl)-8-fluoro-4-((R)-3-hydroxy-3-methylpiperidin-1-yl)pyrido[4,3-d]pyrimidin-2-yl)oxy)methyl)hexahydro-1H-pyrrolizin-3-yl)methyl 7-(4-(1-(2,6-dioxopiperidin-3-yl)-3-methyl-2-oxo-2,3-dihydro-1H-benzo[d]imidazol-5-yl)piperidin-1-yl)-2-azaspiro[3.5]nonane-2-carboxylate], the DC50 on KRAS G12D (class symbols) is below 100 nM; on KRAS G12V it was below 10 nM; at KRAS, below 1 nM.
